Laboratory results reported in patent US12403112B2, “Agent for preventing, ameliorating, or treating periodontal disease” (WAKUNAGA PHARMACEUTICAL CO., LTD., priority 2019, dated 2025).

What was measured:
Type in all cases: cell-based
[1] = system: IL-6 release from human gingival epithelial Ca9-22 cells; assay: Effect of reducing release of IL-6 induced by TNF-α (ELISA); settings: co-treatment with TNF-α, 6 hours, FIGS. 4 and 5
Experimental: Test solutions for evaluating the biological activities were prepared as follows. In evaluating the biological activities, all test solutions were prepared at the time of use. • (a) Approximately 1 mg of SAC and […] (cis:trans=15:85) were each precisely weighed and dissolved in 0.6 mL of purified water (10 mM). This solution was used as a stock solution and diluted appropriately to be subjected to the test. • (b) SAMC was dissolved in a culture medium for cell culture (containing 10% bovine serum albumin, […] penicillin, and 100 μg/mL streptomycin) (1 mM). This solution was used as a stock solution and diluted to be subjected to the test. (2) Cells for Evaluation Test Test cells (human gingival epithelial Ca9-22 cells) were purchased from the National Institute of Biomedical Innovation, Health and Nutrition. Immediately after purchasing, the culturing was initiated (5% CO2, 37° C.) Subculturing was carried out two or three times per week. […] IL-6 ELISA Ready-SET-Go! Kit was purchased from eBioscience, Inc. to measure the amount of IL-6 produced. […] A horseradish peroxidase (HRP)-labeled secondary antibody and chromogenic substrate were added thereto and then the absorbance was measured by using a plate reader. […] After completion of culturing, the supernatant was collected and the concentration of IL-6 was measured by ELISA.

[2] = system: hBD3 gene in human gingival epithelial Ca9-22 cells; assay: Effect of promoting expression of hBD3 gene (quantitative real-time PCR)
Experimental: (§1) Test solutions for evaluating the biological activities were prepared as follows. In evaluating the biological activities, all test solutions were prepared at the time of use. • (a) Approximately 1 mg of SAC and S1PC (cis:trans=15:85) were each precisely weighed and dissolved in 0.6 mL of purified water (10 mM). This solution was used as a stock solution and diluted appropriately to be subjected to the test. • (b) SAMC was dissolved in a culture medium for cell culture (containing 10% bovine serum albumin, […] penicillin, and 100 μg/mL streptomycin) (1 mM). This solution was used as a stock solution and diluted to be subjected to the test. (2) Cells for Evaluation Test
Test cells (human gingival epithelial Ca9-22 cells) were purchased from the National Institute of Biomedical Innovation, Health and Nutrition. Immediately after purchasing, the culturing was initiated (5% CO2, 37° C.) Subculturing was carried out two or three times per week.
The Ca9-22 cells were prepared to 1×10^5 cells/mL in a 10% serum-containing medium, seeded in a 12-well plate at 1 mL respectively, and cultured for 24-48 hours. Assay was carried out when the percentage of cells in each well reached nearly 100%. In the presence or absence of heat-sterilized Porphyromonas gingivalis (HKPG), a reagent was added and the culturing was continued for 24 hours. After completion of culturing, the culture supernatant was removed and […] was added, followed by treatment at room temperature for 5 minutes. RIPA buffer was collected from each well into tubes and chloroform was added (40 μL/tube), followed by treatment at room temperature for 2-3 minutes. After centrifugation (13,000 g, 5 min, 4° C.), the supernatant was transferred to a new tube and 2-propanol was added thereto (80 μL/tube), followed by treatment at room temperature for 10 minutes. After centrifugation (13,000 g, 10 min, 4° C.), the supernatant was removed, and 75% ethanol was added to the precipitate (200 μL/tube), and further centrifugation (13,000 g, 10 min, 4° C.) was carried out. After centrifugation (13,000 g, 10 min, 4° C.), the supernatant was removed, and the dried precipitate (total RNA) was dissolved in sterile water and cryopreserved at −80° C. until use.
(§2) Using a reverse transcription kit (PrimeScript RT reagent kit with gDNA Eraser, RR047A, TAKARA), degradation of DNA remaining in total RNA and reverse transcription reaction from RNA to complementary DNA (cDNA) were carried out. Next, cDNA derived from the target gene was amplified by quantitative real-time polymerase chain reaction (PCR) using primers specific for LL-37 or hBD3 gene. The relative expression levels of LL-37 and hBD3 genes were calculated using beta-actin as an internal reference gene.

[3] = system: LL-37 gene in human gingival epithelial Ca9-22 cells; assay: Effect of promoting expression of LL-37 gene (quantitative real-time PCR); settings: treatment for 24 hours, absence of HKPG, compared to untreated, FIG. 1
Experimental: as §1
Test cells (human gingival epithelial Ca9-22 cells) were purchased from the National Institute of Biomedical Innovation, Health and Nutrition. […]
as §2

[4] = system: ICAM-1 protein in human gingival epithelial Ca9-22 cells; assay: Effect of down-regulating expression of ICAM-1 induced by TNF-α (Western blot); settings: co-treatment with TNF-α, 24 hours, FIG. 3
Experimental: Test solutions for evaluating the biological activities were prepared as follows. In evaluating the biological activities, all test solutions were prepared at the time of use. • (a) Approximately 1 mg of SAC and […] (cis:trans=15:85) were each precisely weighed and dissolved in 0.6 mL of purified water (10 mM). This solution was used as a stock solution and diluted appropriately to be subjected to the test. • (b) SAMC was dissolved in a culture medium for cell culture (containing 10% bovine serum albumin, […] penicillin, and 100 μg/mL streptomycin) (1 mM). This solution was used as a stock solution and diluted to be subjected to the test. (2) Cells for Evaluation Test Test cells (human gingival epithelial Ca9-22 cells) were purchased from the National Institute of Biomedical Innovation, Health and Nutrition. Immediately after purchasing, the culturing was initiated (5% CO2, 37° C.) Subculturing was carried out two or three times per week. […] A portion of the above protein supernatant was collected and the total protein concentration was calculated by BCA method. […] After reaction treatment, the proteins were washed with Tris-buffered saline three times, an HRP substrate was added thereto, and the luminescence intensity was detected by a luminoimage analyzer.

[5] = 300 μM, presence of 10^7/mL HKPG (heat-sterilized Porphyromonas gingivalis), FIG. 2
[6] = treatment for 24 hours, absence of HKPG

Row | SMILES | amount of released IL-6 induced by TNF-α [1] | expression level of hBD3 gene [2, 5] | expression level of hBD3 gene [2, 6] | expression level of LL-37 gene [3] | expression of ICAM-1 protein induced by TNF-α [4]
1 | C=CCSSCC(N)C(=O)O (stereo not drawn) [SAMC, S-allylmercaptocysteine] | concentration-dependently reduced |  |  |  | 
2 | C=CCSC[C@H](N)C(=O)O [SAC, S-allylcysteine] | concentration-dependently reduced | significantly increased | no change | significantly increased | 
3 | CC=CSC[C@H](N)C(=O)O [S1PC, S-1-propenylcysteine] |  | significantly increased | no change | significantly increased | concentration-dependently down-regulated
